# How the values were obtained:
# [1] = rat, in vivo
# Text: Male Sprague Dawley rats, intact or bile-cannulated, were from Envigo RMS, Inc. The animals were acclimated to study conditions for five days prior to dose administration. During acclimation, animals were individually housed in suspended, stainless steel, wire-mesh cages. During the test period, animals were placed in Nalgene cages designed for the collection of urine, feces, and bile. Certified Rodent Diet #2016C or 2016CM (Envigo RMS, Inc.) were provided ad libitum. Water was provided fresh daily. Environmental controls for the animal room were set to maintain a temperature of 20-26 °C, a relative humidity of 50 ± 20%, and a 12-hour light/12-hour dark cycle. […] Three BDC rats were used for collection of bile, urine, and feces, five intact rats for collection of plasma, blood, urine, feces, and tissues, and eight intact rats for collection of blood and carcasses for QWBA. […] The vehicle for the IV dose was 20% 2-hydroxypropyl-β-cyclodextrin (HP-β-CD) in 50 mM sodium acetate buffer, pH 4.0. […] The supernatant was removed, and the formulation appeared to be a very slight yellow solution. Stability was checked by HPLC analysis of pre- and post-dose aliquots. Animals were not fasted. The actual amount administered was determined by weighing the dose syringe before and after dose administration. The IV dose of 4 mg/kg was administered via a tail vein. For QWBA rats, one animal/time point was prepared for QWBA at approximately 0.25, 1, 4, 8, 24, 48, 168, and 336 hours. […] Blood was maintained on wet ice until being aliquoted for radioanalysis and centrifuged to obtain plasma. […] Each carcass was drained, blotted dry, placed into an appropriately labeled bag, and placed on dry ice or stored at ~-70 °C for at least 2 hours. The frozen carcasses were embedded in chilled carboxymethylcellulose and frozen into blocks. Embedded carcasses were stored at ~-20 °C in preparation for autoradiographic analysis. The samples were stored at -70 °C before analysis. […] Prior to section collection, standards fortified with ^14C radioactivity were placed into the frozen block containing the carcass and were used for monitoring the uniformity of section thickness. Appropriate sections were collected on adhesive tape at 40 μm thickness, in a Leica CM 3600 cryomicrotome in accordance with Covance standard operating procedures. Sections were collected at five levels of interest in the sagittal plane. All major tissues, organs, and biological fluids were represented. Collected sections were dried at ~-20 °C. A section set from each animal was prepared by mounting a representative section from each level of interest. Mounted sections were tightly wrapped with Mylar film and exposed on phosphor-imaging screens along with fortified blood standards for subsequent calibration of the image analysis software. Screens were exposed for 4 days. Exposed screens were scanned using a Typhoon scanner. The autoradiographic standard image data were sampled using InterFocus Imaging Ltd. MCIDTM Analysis software to create a calibrated standard curve. Specified tissues, organs, and fluids were analyzed. […] Tissue concentration data are presented in tabular format. Autoradiographs were annotated. The mean time concentration profile was generated for each group, and an overall AUC was then calculated with these sparse samples of rats and mice. […]
# [2] = Protein binding by equilibrium dialysis (plasma, tissue homogenates, DPBS); type: in vitro ADME, rat
# Experimental: Control plasma was purchased from BioIVT, Hicksville, New York. Pooled plasma was obtained from at least three rats with K2EDTA as the anticoagulant. Control plasma was used to test the suitability of the system and for positive control analysis. Dulbecco’s phosphate-buffered saline (DPBS) (Millipore Sigma, St Louis, Missouri) was used to test the suitability of the system and as the receiver side of the dialysis device. […] The stock solution was added to the matrix (plasma or DPBS) and swirled to mix. The fortified matrix was then incubated at 37 °C for 15 min. Triplicate aliquots of the fortified matrix were analyzed by LSC.
# The high throughput dialysis apparatus, model HTD96b, was used (HTDialysis LLC, Gales Ferry, Connecticut). Prior to assembly, dialysis membrane strips (molecular weight cutoff of 6–8 kDa) were hydrated, and the Teflon bars were assembled according to manufacturer’s instructions, with dialysis membrane strips laid between bars creating two compartments per well. The assembled unit was locked in place in the steel base plate. A 150 µL aliquot of each fortified matrix (tissue homogenates, plasma, or DPBS) and DPBS were added to the donor and receiver side of the HTD wells in a Teflon plate, respectively, and the plate was sealed. Samples were incubated at 37 °C and rotated at 300 rpm for 7 hours. After incubation, the seal was removed, and tissue homogenates, plasma, or DPBS and dialysate from each device insert were analyzed by LSC. All protein binding determinations were performed in triplicate.
# Dialysis was performed accordingly. The radioactivity concentration of the test article in the donor and receiver samples was determined by LSC (count time 60 min) for the calculation of protein binding. […] After the designated time, aliquots of the individual donor and receiver samples were removed and analyzed by LSC. The remaining sample volume was stored at −20 °C.
# Dialysis was performed accordingly.
# Protein binding by equilibrium dialysis:1 PercentDrugBound=(Cm-Cd)/Cm×100 2 PercentDrugUnbound=100-PercentBound where: Cd, concentration of test article in dialysate at equilibrium; Cm, Concentration of test article in matrix at equilibrium.
# Recovery from equilibrium dialysis:3 Recovery(%)=(Cm×Vm)+(Cd×Vd)/(Co×Vo)×100 where: Cm, Concentration of test article in matrix at equilibrium; Cd, Concentration of test article in dialysate at equilibrium; Co, Original concentration of test article in matrix prior to loading the dialysis device; Vm, Nominal volume of the matrix at equilibrium; Vd, Nominal volume of the dialysate at equilibrium; Vo, Nominal volume of the original matrix added to the dialysis device.
smiles,measurement,setting,value
Cc1ncsc1-c1ccc(C(C)NC(=O)C2CC(O)CN2C(=O)C(c2cc(N3CCC(CN4CCC(OC5CC(Oc6cc(N7C8CCC7CN(c7cc(-[14c]9[14cH][14cH][14cH][14cH][14c]9O)nnc7N)C8)ccn6)C5)CC4)CC3)no2)C(C)C)cc1 (stereo not drawn) [14C-A947],Half-life (t1/2) in tissues,[1],87 to 100 h
same,"Radioactivity t1/2, brain cerebellum",[1],11 h
same,"Radioactivity t1/2, small intestine",[1],167 h
same,"Cmax, adrenal glands","[1]; iv, 4 mg/kg",17 µg/g
same,"Cmax, kidneys","[1]; iv, 4 mg/kg",22 µg/g
same,"Cmax, liver","[1]; iv, 4 mg/kg",32 µg/g
same,"Cmax, lungs","[1]; iv, 4 mg/kg",12 µg/g
same,"Cmax, pancreas","[1]; iv, 4 mg/kg",9 µg/g
same,"Cmax, salivary glands","[1]; iv, 4 mg/kg",12 µg/g
same,"Cmax, spleen","[1]; iv, 4 mg/kg",21 µg/g
same,"Cmax, thyroid gland","[1]; iv, 4 mg/kg",18 µg/g
same,t½,"[1]; iv, 4 mg/kg",111 h
same,Percent Bound,[2],99.3%
same,"Percentage bound (mean), Control Plasma",[2],99.2%
same,"Percentage bound (mean), Kidney",[2],100%
same,"Percentage bound (mean), Liver",[2],100%
same,"Percentage bound (mean), Lungs",[2],99.5%
same,"Percentage bound (mean), Pancreas",[2],100%
same,"Percentage bound (mean), Plasma (4 hour)",[2],96.8%
same,"Percentage bound (mean), Plasma (24 hour)",[2],98.2%
same,"Percentage bound (mean), Plasma (48 hour)",[2],97.5%
same,"Percentage bound (mean), Prostate Gland",[2],99.8%
same,"Percentage bound (mean), Spleen",[2],99.1%
same,"Percentage bound (mean), Thymus",[2],100%
same,Fu,"[2]; rat, plasma",0.007
same,"Percentage unbound (mean), Control Plasma","[2]; rat, plasma",0.795%
same,"Percentage unbound (mean), Plasma (4 hour)","[2]; rat, plasma",0.548%
same,"Percentage unbound (mean), Plasma (24 hour)","[2]; rat, plasma",0.595%
same,"Percentage unbound (mean), Plasma (48 hour)","[2]; rat, plasma",0.863%
same,"Percentage unbound (mean), Liver","[2]; rat, tissue homogenate",0.0298%
same,"Percentage unbound (mean), Lungs","[2]; rat, tissue homogenate",0.09%
same,"Percentage unbound (mean), Pancreas","[2]; rat, tissue homogenate",0.0125%
same,"Percentage unbound (mean), Thymus","[2]; rat, tissue homogenate",0.0426%

# Source: PMC11099041, “Tissue distribution and retention drives efficacy of rapidly clearing VHL-based PROTACs” (Communications Medicine, 2024)
